Reference: patent publication US20180303807A1, “ANDROGEN RECEPTOR LIGANDS” (DUKE UNIVERSITY, priority 2015, published 2018)
Changes are numbered by the printed parent chain.

Key:
Type in all cases: cell-based
AR [1] = molecular target: T1, AR (Homo sapiens, UniProt P10275); test: Reporter gene assay, AR transcriptional (MMTV-Luc) in CV1 cells; conditions: pcDNA-AR + MMTV-Luc, 0.1 nM R1881 plus test compound, 24 hrs, read-out: B1 = AR transcriptional IC50 (μM) in CV1 cells
T1 construct: expressed in transfected cells; host or cells: CV1 cells
T1 sequence (P10275 1-920): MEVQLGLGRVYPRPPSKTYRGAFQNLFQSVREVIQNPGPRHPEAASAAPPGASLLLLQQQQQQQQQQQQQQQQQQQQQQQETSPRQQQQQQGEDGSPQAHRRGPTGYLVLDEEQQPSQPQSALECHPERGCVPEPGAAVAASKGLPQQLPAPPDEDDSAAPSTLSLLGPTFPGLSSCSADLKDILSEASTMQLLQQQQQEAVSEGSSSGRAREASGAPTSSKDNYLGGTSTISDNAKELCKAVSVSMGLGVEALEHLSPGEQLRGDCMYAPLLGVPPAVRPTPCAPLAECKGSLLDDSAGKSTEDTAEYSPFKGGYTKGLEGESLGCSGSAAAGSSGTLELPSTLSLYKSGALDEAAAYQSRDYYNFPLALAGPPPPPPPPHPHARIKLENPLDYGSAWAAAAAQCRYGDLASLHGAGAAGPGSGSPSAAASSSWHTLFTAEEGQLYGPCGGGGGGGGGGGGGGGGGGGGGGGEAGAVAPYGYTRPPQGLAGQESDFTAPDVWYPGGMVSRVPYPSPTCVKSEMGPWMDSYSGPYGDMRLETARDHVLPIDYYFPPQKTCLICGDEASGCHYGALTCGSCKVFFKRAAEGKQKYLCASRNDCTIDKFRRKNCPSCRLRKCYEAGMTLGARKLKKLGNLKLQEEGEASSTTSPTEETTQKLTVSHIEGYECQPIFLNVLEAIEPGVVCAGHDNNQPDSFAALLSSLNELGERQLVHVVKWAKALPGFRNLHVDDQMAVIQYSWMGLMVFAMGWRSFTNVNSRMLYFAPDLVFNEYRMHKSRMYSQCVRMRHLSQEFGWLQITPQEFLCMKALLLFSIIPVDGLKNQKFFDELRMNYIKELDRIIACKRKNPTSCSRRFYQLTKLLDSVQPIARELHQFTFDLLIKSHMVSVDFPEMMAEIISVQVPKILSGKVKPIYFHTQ
Outline: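 CV1 cells transiently co-transfected with human AR, MMTV-Luc reporter and Renilla-Luc (transfection efficiency and toxicity read-out), then stimulated 24 h with 0.1 nM R1881 plus increasing test compound concentrations. Firefly and Renilla luciferase quantified by dual-luciferase assay; IC50 derived from concentration-response.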

AR [2] = test: Real-time PCR of AR target gene transcription in LNCaP-AR (AR overexpressing) cells, CRPC model; set-up: key to B5 = Relative antagonist activity (plus 0.1 nM R1881) of test compounds (20 μM) in AR overexpressing LNCaP cells (NKX3.1 AR target gene) / B7 = Relative antagonist activity (plus 0.1 nM R1881) of test compounds (20 μM) in AR overexpressing LNCaP cells (PSA AR target gene): a score of 1 indicates higher antagonist efficacy (highly desired activity) than benchmark compound enzalutamide; a score of 2 indicates equal antagonist efficacy to enzalutamide (desirable); a score of 3 indicates antagonist efficacy between enzalutamide and bicalutamide (less desirable activity); a score of 4 indicates antagonist efficacy equal to bicalutamide (liability); a score of 5 indicates antagonist efficacy worse than bicalutamide (liability); key to B4 = Relative agonist activity (no R1881) of test compounds (20 μM) in AR overexpressing LNCaP cells (NKX3.1 AR target gene) / B6 Relative agonist activity (no R1881) of test compounds (20 μM) in AR overexpressing LNCaP cells (PSA AR target gene): a score of 1 indicates less agonism (highly desired activity) than benchmark compound enzalutamide; a score of 2 indicates equal agonism to enzalutamide (desirable); a score of 3 indicates agonism between enzalutamide and bicalutamide (less desirable activity); a score of 4 indicates equal agonism to bicalutamide (liability); a score of 5 indicates higher agonism than bicalutamide (liability); conditions: for B6 Relative agonist activity (no R1881) of test compounds (20 μM) in AR overexpressing LNCaP cells (PSA AR target gene) / B7 = Relative antagonist activity (plus 0.1 nM R1881) of test compounds (20 μM) in AR overexpressing LNCaP cells (PSA AR target gene) / B4 = Relative agonist activity (no R1881) of test compounds (20 μM) in AR overexpressing LNCaP cells (NKX3.1 AR target gene) / B5 = Relative antagonist activity (plus 0.1 nM R1881) of test compounds (20 μM) in AR overexpressing LNCaP cells (NKX3.1 AR target gene): score vs enzalutamide/bicalutamide; for B7 = Relative antagonist activity (plus 0.1 nM R1881) of test compounds (20 μM) in AR overexpressing LNCaP cells (PSA AR target gene): plus 0.1 nM R1881, PSA gene; for B4 = Relative agonist activity (no R1881) of test compounds (20 μM) in AR overexpressing LNCaP cells (NKX3.1 AR target gene): no R1881, NKX3.1 gene; for B5 = Relative antagonist activity (plus 0.1 nM R1881) of test compounds (20 μM) in AR overexpressing LNCaP cells (NKX3.1 AR target gene): plus 0.1 nM R1881, NKX3.1 gene
Procedure: Real-Time PCR (CRPC model of AR overexpressing prostate cancer cells, Table 2, B4-B7). LNCaP-AR (AR overexpressing cells) cells were seeded in 12-well plates in RPMI 1640 (8% charcoal-stripped fetal calf serum (CFS)). […] AR target gene transcription (PSA, NKX3.1, FKBP5) was assessed by realtime PCR.
For B4-B7, scoring system is based on the relative AR target gene agonist/antagonist activity of test compounds when compared to benchmark compounds enzalutamide or bicalutamide. […] The lack of agonist activity is desirable for therapies intended to treat CRPC. For B4 and B6, a score of 1 indicates less agonism (highly desired activity) than benchmark compound enzalutamide, a score of 2 indicates equal agonism to enzalutamide (desirable), a score of 3 indicates agonism between enzalutamide and bicalutamide (less desirable activity), a score of 4 indicates equal agonism to bicalutamide (liability), and a score of 5 indicates higher agonism than bicalutamide (liability). For B5 and B7 a score of 1 indicates higher antagonist efficacy (highly desired activity) than benchmark compound enzalutamide, a score of 2 indicates equal antagonist efficacy to enzalutamide (desirable), a score of 3 indicates antagonist efficacy between enzalutamide and bicalutamide (less desirable activity), a score of 4 indicates antagonist efficacy equal to bicalutamide (liability), and a score of 5 indicates antagonist efficacy worse than bicalutamide (liability) For B9, Compounds that degrade AR (greater than 50% degradation at 10 μM) are indicated.

CV1 cells = test: Toxicity of test compound in the CV1 reporter gene assay (Renilla-Luc)
Procedure: Reporter Gene Assay (IC50 determination, Table 2, B1-B3). CV1 cells were seeded into 96-well cell culture plates and transfected with Lipofectin. For AR transcriptional assays, the DNA mixture consisted of pcDNA-AR, MMTV-Luc (androgen responsive reporter gene), and Renilla-Luc (for assessing transfection efficiency and toxicity). Following overnight incubation, cells were induced with hormone (0.1 nM R1881 (synthetic AR agonist) plus increasing concentrations of test compound) for 24 hrs. Cells were lysed and luciferase activity was quantified using Dual Luciferase Reagent (DLR). IC50 determination was assessed using GraphPad Prism software.

AR [3] = molecular target: T2, AR (Homo sapiens, UniProt P10275, T878A); test: In Cell Western AR degradation assay in LNCaP cells; conditions: 18 hrs, greater than 50% degradation at 10 μM (method says 20 μM)
T2 construct: endogenous in cells; host or cells: LNCaP cells
T2 sequence (P10275 1-920 T878A): T1 sequence (P10275 1-920) with T878A
Outline: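 After 48 h plating in RPMI with 8% CFS, LNCaP cells were exposed to 20 μM test compound for 18 h, fixed with 3.7% formaldehyde and permeabilized. AR was detected with anti-AR N20 antibody and an infrared secondary, imaged by LI-COR Odyssey and normalized to DRAQ5 DNA stain.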

O=C1CCCC2=C1C(c1ccc([N+](=O)[O-])cc1)c1c(ccc3ncccc13)N2 (stereo not shown) [Compound A18]
IC50 (AR [1]): > 10 µM
B6 Relative agonist activity (no R1881) of test compounds (20 μM) in AR overexpressing LNCaP cells (PSA AR target gene) (AR [2]): 1
B7 = Relative antagonist activity (plus 0.1 nM R1881) of test compounds (20 μM) in AR overexpressing LNCaP cells (PSA AR target gene) (AR [2]): 2
B2 = % Toxicity of test compound (20 μM) (CV1 cells): 0%
B3 = % Toxicity of test compound (60 μM) (CV1 cells): 22%

CC1(C)CC(=O)C2=C(C1)Nc1ccc3ccccc3c1C2c1cccc(C(F)(F)F)c1 (stereo not shown) [Compound A9]
IC50 (AR [1]): 5.5 µM
B4 = Relative agonist activity (no R1881) of test compounds (20 μM) in AR overexpressing LNCaP cells (NKX3.1 AR target gene) (AR [2]): 1
B6 Relative agonist activity (no R1881) of test compounds (20 μM) in AR overexpressing LNCaP cells (PSA AR target gene) (AR [2]): 1
B5 = Relative antagonist activity (plus 0.1 nM R1881) of test compounds (20 μM) in AR overexpressing LNCaP cells (NKX3.1 AR target gene) (AR [2]): 1
B7 = Relative antagonist activity (plus 0.1 nM R1881) of test compounds (20 μM) in AR overexpressing LNCaP cells (PSA AR target gene) (AR [2]): 1
B2 = % Toxicity of test compound (20 μM) (CV1 cells): 0%
B3 = % Toxicity of test compound (60 μM) (CV1 cells): 0%

CNC(=O)c1ccc(N2C(=S)N(c3ccc(C#N)c(C(F)(F)F)c3)C(=O)C2(C)C)cc1F [Enzalutamide, enzalutamide, reference compound]
agonist activity in AR overexpressing LNCaP cells (model of CRPC) (AR [2]; benchmark compounds, AR overexpressing LNCaP cells): does not possess agonist activity

CC1(C)CC(=O)C2=C(C1)Nc1ccc3ccccc3c1C2c1ccc(Cl)c([N+](=O)[O-])c1 (stereo not shown) [Compound A6]
IC50 (AR [1]): 3.8 µM
B4 = Relative agonist activity (no R1881) of test compounds (20 μM) in AR overexpressing LNCaP cells (NKX3.1 AR target gene) (AR [2]): 1
B6 Relative agonist activity (no R1881) of test compounds (20 μM) in AR overexpressing LNCaP cells (PSA AR target gene) (AR [2]): 1
B5 = Relative antagonist activity (plus 0.1 nM R1881) of test compounds (20 μM) in AR overexpressing LNCaP cells (NKX3.1 AR target gene) (AR [2]): 1
B7 = Relative antagonist activity (plus 0.1 nM R1881) of test compounds (20 μM) in AR overexpressing LNCaP cells (PSA AR target gene) (AR [2]): 1
B2 = % Toxicity of test compound (20 μM) (CV1 cells): 0%
B3 = % Toxicity of test compound (60 μM) (CV1 cells): 0%

Cn1c(=O)n(C)c2cc(C3C4=C(CC(C)(C)CC4=O)Nc4ccc5ccccc5c43)ccc21 (stereo not shown) [Compound A8]
IC50 (AR [1]): 5.3 µM
B4 = Relative agonist activity (no R1881) of test compounds (20 μM) in AR overexpressing LNCaP cells (NKX3.1 AR target gene) (AR [2]): 2
B6 Relative agonist activity (no R1881) of test compounds (20 μM) in AR overexpressing LNCaP cells (PSA AR target gene) (AR [2]): 1
B5 = Relative antagonist activity (plus 0.1 nM R1881) of test compounds (20 μM) in AR overexpressing LNCaP cells (NKX3.1 AR target gene) (AR [2]): 1
B7 = Relative antagonist activity (plus 0.1 nM R1881) of test compounds (20 μM) in AR overexpressing LNCaP cells (PSA AR target gene) (AR [2]): 1
B2 = % Toxicity of test compound (20 μM) (CV1 cells): 0%
B3 = % Toxicity of test compound (60 μM) (CV1 cells): 0%

N#Cc1ccc(C2C3=C(CCCC3=O)Nc3ccc4ccccc4c32)cc1 (stereo not shown) [Compound A22]
IC50 (AR [1]): > 10 µM
B6 Relative agonist activity (no R1881) of test compounds (20 μM) in AR overexpressing LNCaP cells (PSA AR target gene) (AR [2]): 3
B7 = Relative antagonist activity (plus 0.1 nM R1881) of test compounds (20 μM) in AR overexpressing LNCaP cells (PSA AR target gene) (AR [2]): 3
B2 = % Toxicity of test compound (20 μM) (CV1 cells): 0%
B3 = % Toxicity of test compound (60 μM) (CV1 cells): 66%

CC1(C)CC(=O)C2=C(C1)Nc1ccc3ccccc3c1C2c1ccncc1 (stereo not shown) [Compound A12]
IC50 (AR [1]): 8.6 µM
B4 = Relative agonist activity (no R1881) of test compounds (20 μM) in AR overexpressing LNCaP cells (NKX3.1 AR target gene) (AR [2]): 1
B6 Relative agonist activity (no R1881) of test compounds (20 μM) in AR overexpressing LNCaP cells (PSA AR target gene) (AR [2]): 1
B5 = Relative antagonist activity (plus 0.1 nM R1881) of test compounds (20 μM) in AR overexpressing LNCaP cells (NKX3.1 AR target gene) (AR [2]): 2
B7 = Relative antagonist activity (plus 0.1 nM R1881) of test compounds (20 μM) in AR overexpressing LNCaP cells (PSA AR target gene) (AR [2]): 3
B2 = % Toxicity of test compound (20 μM) (CV1 cells): 0%
B3 = % Toxicity of test compound (60 μM) (CV1 cells): 94%

CC1(C)CC(=O)C2=C(C1)Nc1ccc3ncccc3c1C2c1cc(Br)c(Br)s1 (stereo not shown) [Compound A76]
IC50 (AR [1]): 2.2 µM
B9 = AR degradation in LNCaP cells (In-Cell Western) (AR [3]): Degrader (Compounds that degrade AR (greater than 50% degradation at 10 μM) are indicated)

CC1(C)CC(=O)C2=C(C1)Nc1ccc3ncccc3c1C2c1ccc(C#N)cc1 (stereo not shown) [Compound A55]
IC50 (AR [1]): > 10 µM
B9 = AR degradation in LNCaP cells (In-Cell Western) (AR [3]): Degrader (Compounds that degrade AR (greater than 50% degradation at 10 μM) are indicated)
